According to patent US6288082A, “Substituted 3-cyanoquinolines” (priority 1999, dated 2001):
Where “and” joins values, the source holds several entries; their conditions need not be identical. Identical values can stand only once. Counter-ions that a name gives are not always drawn.

Each compound was assayed against Mitogen Activated Protein Kinase (Mek-Erk) (assay: Mitogen Activated Protein Kinase (MAPK) assay, coupled Mek-Erk). Details: MBP or Myc peptide substrate, pH 7.4.
Format: biochemical, human
Description: Mitogen Activated Protein Kinase (MAPK) Assay
To evaluate inhibitors of the MAP (mitogen activated protein) kinase a two component coupled standard pharmacological test procedure, which measures phosphorylation of a serine/threonine residue in an appropriate sequence in the substrate in the presence and absence of a putative inhibitor, was used. Recombinant human MEK 1 (MAPKK) was first used to activate recombinant human ERK2 (MAPK) and the activated MAPK (ERK) was incubated with substrate (MBP peptide or MYC peptide) in the presence of ATP, Mg^+2 and radiolabeled ^33 P ATP. The phosphorylated peptide was captured on a P 81 phosphocellulose filter (paper filter or embedded in microtiter plate) washed and counted by scintillation methods.
The peptide substrates used in the assay are MBP, peptide substrate ([…]), or synthetic Myc substrate, ([…]·5 TFA. The recombinant enzymes used were prepared as GST fusion proteins of human ERK 2 and human MEK 1. Inhibitor samples were prepared as 10×stocks in 10% DMSO and an appropriate aliquot was used to deliver either 10 ug/ml for a single point screening dose or 100, 10, 1, and 0.1 uM final concentration for a dose response curve. Final DMSO concentrations were less than or equal to 1%.
The reaction was run as follows in 50 mM Tris kinase buffer, pH 7.4 in a reaction volume of 50 ul. The appropriate volume of kinase buffer and inhibitor sample was added to the tube. Appropriate dilution of enzyme was delivered to give 2-5 ug recombinant MAPK (Erk ) per tube. The inhibitor was incubated with MAPK (Erk) for 30 min at 0 deg. C. Recombinant Mek (MAPKK) (0.5-2.5 ug) or fully activated Mek (0.05-0.1 units) was added to activate the Erk and incubated for 30 min at 30° C. Then substrate and gamma ^33 P ATP was were added to give a final concentration of 0.5-1 mM MBPP or 250-500 uM Myc; 0.2-0.5 uCi gamma P 33 ATP/tube; 50 μM ATP final concentration. Samples were incubated at 30° C. for 30 minutes and the reaction was stopped by adding 25 μl of ice cold 10% TCA. After samples were chilled on ice for 30 min, 20 μl of sample was transferred onto P 81 phosphocellulose filter paper or appropriate MTP with embedded P 81 filter. Filter papers or MTP were washed 2 times with a large volume of 1% acetic acid, then 2 times with water. The filters or MTP were briefly air dried before addition of scintillant and samples were counted in the appropriate scintillation counter set up for reading ^33 P isotope. Samples included a positive control (activated enzyme plus substrate); a no enzyme control; a no substrate control; samples with different concentrations of putative inhibitor; and samples with reference inhibitors (other active compounds or non-specific inhibitors such as staurosporine or K252 B).
The raw data was captured as cpm. Sample replicates were averaged and corrected for background count. Mean cpm data was tabulated by group and % inhibition by a test compound was calculated as (corrected cpm control-corrected. cpm sample/control)×100=% inhibition. […] The results obtained for representative compounds of this invention are listed in TABLE 2 where there may be separate entries for the same compound; this is an indication that the compound was evaluated more than one time.

| IC50 | Compound |
| --- | --- |
| 55 µM | CCOc1cc2ncc(C#N)c(Nc3ccc4ncsc4c3)c2cc1OCC [Example 97, 4-(Benzothiazol-6-ylamino)-6,7-diethoxy-quinoline-3-carbonitrile HCl Salt] |
| 0.5 µM | COc1cc2ncc(C#N)c(Nc3ccc4cn[nH]c4c3)c2cc1OC [Example 102, 6,7-Dimethoxy-4-(1H-indazol-6-ylamino)-quinoline-3-carbonitrile] |
| 35 µM | CCOc1cc2ncc(C#N)c(Nc3ccc4c(c3)C(=O)NC4=O)c2cc1OCC [Example 104, 4-(1,3-Dioxo-2,3-dihydro-1H-isoindol-5-ylamino)-6,7-diethoxy-quinoline-3-carbonitrile] |
| > 100 µM | CCOc1cc2ncc(C#N)c(Nc3ccc4[nH]c(=O)oc(=O)c4c3)c2cc1OCC [Example 109, 4-(2,4-Dioxo-1,4-dihydro-2H-benzo[d][1,3]oxazin-6-ylamino)-6,7-diethoxy-quinoline-3-carbonitrile] |
| > 100 µM | CCOc1cc2ncc(C#N)c(Nc3ccc4c(c3)S(=O)(=O)C=C4)c2cc1OCC [Example 112, 4-(1,1-Dioxo-1H-benzo[b]thiophen-6-ylamino)-6,7-diethoxy-quinoline-3-carbonitrile] |
| 35 µM | N#Cc1cnc2cc3c(cc2c1Nc1ccc2cn[nH]c2c1)OCCO3 [Example 125, 9-(1H-Indazol-6-ylamino)-2,3-dihydro[1,4]dioxino[2,3-g]quinoline-8-carbonitrile] |
| > 100 µM | CCOc1cc2c(Nc3ccc4cn[nH]c4c3)c(C#N)cnc2cc1OC [Example 126, 6-Ethoxy-4-(1H-indazol-6-ylamino)-7-methoxyquinoline-3-carbonitrile] |
| > 100 µM and 100 µM | COc1cc2c(Nc3ccc4cn[nH]c4c3)c(C#N)cnc2c(OC)c1OC [Example 128, 4-(1H-Indazol-6-ylamino)-6,7,8-trimethoxy-quinoline-3-carbonitrile] |
| > 100 µM | COc1cc2ncc(C#N)c(Nc3ccc4c(C)cc(=O)[nH]c4c3)c2cc1OC [Example 129, 6,7-Dimethoxy-4-(4-methyl-2-oxo-1,2-dihydro-quinolin-7-ylamino)-quinoline-3-carbonitrile] |
| > 100 µM | COc1cc2ncc(C#N)c(Nc3ccc4sc(C)nc4c3)c2cc1OC [Example 130, 6,7-Dimethoxy-4-(2-methyl-benzothiazol-5-ylamino)-quinoline-3-carbonitrile] |
| > 100 µM | COc1cc2ncc(C#N)c(Nc3ccc4[nH]c(=O)sc4c3)c2cc1OC [Example 131, 6,7-Dimethoxy-4-(2-oxo-2,3-dihydro-benzothiazol-6-ylamino)-quinoline-3-carbonitrile] |
| 90 µM | COc1cc2ncc(C#N)c(Nc3cccc4ncccc34)c2cc1OC [Example 132, 6,7-Dimethoxy-4-(quinolin-5-ylamino)-quinoline-3-carbonitrile] |
| 90 µM | COc1cc2ncc(C#N)c(Nc3cccc4cnccc34)c2cc1OC [Example 133, 4-(Isoquinolin-5-ylamino)-6,7-dimethoxy-quinoline-3-carbonitrile] |
| > 100 µM | COc1cc2ncc(C#N)c(Nc3cccc4cccnc34)c2cc1OC [Example 134, 6,7-Dimethoxy-4-(quinolin-8-ylamino)-quinoline-3-carbonitrile] |
| > 100 µM | COc1cc2ncc(C#N)c(Nc3ccc(O)c4ncccc34)c2cc1OC [Example 135, 4-(8-Hydroxy-quinolin-5-ylamino)-6,7-dimethoxy-quinoline-3-carbonitrile] |
| > 100 µM | COc1ccc(OC)c2c(Nc3ccc4cn[nH]c4c3)c(C#N)cnc12 [Example 138, 4-(1H-Indazol-6-ylamino)-5,8-dimethoxy-quinoline-3-carbonitrile] |
| 15 µM | COc1cc2ncc(C#N)c(Nc3ccc4cn[nH]c4c3)c2cc1OCCCN1CCOCC1 [Example 139, 4-(1H-Indazol-6-ylamino)-7-methoxy-6-(3-morpholine-4-yl-propoxy)-quinoline-3-carbonitrile hydrochloride] |
| 3 µM | COc1ccc2ncc(C#N)c(Nc3ccc4cn[nH]c4c3)c2c1 [Example 141, 4-(1H-Indazol 6-ylamino)-6-methoxy-quinoline-3-carbonitrile] |
| 30 µM | COc1ccc2ncc(C#N)c(Nc3ccc4nn[nH]c4c3)c2c1 [Example 142, 4-(3H-Benzotriazol-5-ylamino)-6-methoxy-quinoline-3-carbonitrile] |
| 6 µM | COc1ccc2c(Nc3ccc4cn[nH]c4c3)c(C#N)cnc2c1 [Example 143, 4-(1H-Indazol-6-ylamino)-7-methoxy-quinoline-3-carbonitrile] |
| > 100 µM | COc1ccc2c(Nc3ccc4[nH]nnc4c3)c(C#N)cnc2c1 [Example 144, 4-(3H-benzotriazol-5-ylamino)-7-methoxy-quinoline-3-carbinitile] |
| 3 µM | COc1ccc2c(Nc3ccc4[nH]ccc4c3)c(C#N)cnc2c1 [Example 146, 4-(1H-Indol-5-ylamino)-7-methoxy-quinoline-3-carbonitrile] |
| > 100 µM | COc1cccc2c(Nc3ccc4cn[nH]c4c3)c(C#N)cnc12 [Example 148, 4-(1H-Indazol-6-ylamino)-8-methoxy-quinoline-3-carbonitrile] |
| > 100 µM | COc1cccc2c(Nc3ccc4nn[nH]c4c3)c(C#N)cnc12 [Example 149, 4-(3H-benzotriazol-5-ylamino)-8-methoxy-quinoline-3-carbonitrile] |
| > 100 µM | COc1cc2ncc(C#N)c(Nc3ccc4[nH]c(C)nc4c3)c2cc1OC [Example 152, 6,7-Dimethoxy-4-(2-methyl-1H-benzoimidazol-5-ylamino)-quinoline-3-carbonitrile] |
| > 100 µM | COc1cc2ncc(C#N)c(Nc3ccc4ncccc4c3)c2cc1OC [Example 153, 6,7-Dimethoxy-4-(quinoline-6-ylamino)-quinoline-3-carbonitrile] |
| 4 µM | COc1cc2ncc(C#N)c(Nc3cccc4c3CCCC4)c2cc1OC [Example 155, 6,7-Dimethoxy-4-(5,6,7,8,-tetrahydro-naphthalen-1-ylamino)-quinoline-3-carbonitrile] |
| 35 µM | COc1cc2c(Nc3ccc4nn[nH]c4c3)c(C#N)cnc2c(OC)c1OC [Example 156, 4-(3H-Benzotriazol-5-ylamino)-6,7,8-Trimethoxy-quinoline-3-carbonitrile] |
| 8 µM | COc1cc2c(Nc3ccc4cn[nH]c4c3)c(C#N)cnc2cc1OCCN(C)C [Example 167, 7-(2-Dimethylaminoethoxy)-4-(1H-indazol-6-ylamino)-6-methoxyquinoline-3-carbonitrile] |

Same assay, conditions: MBP or Myc peptide substrate, pH 7.4; hydrochloride

| IC50 | Compound |
| --- | --- |
| 22 µM and 15 µM | COc1cc2ncc(C#N)c(Nc3ccc4[nH]nnc4c3)c2cc1OCCCN1CCOCC1 [Example 140, 4-(3H-Benzotriazol-5-ylamino)-7-methoxy-6-(3-morpholin-4-yl-proloxy)-quinoline-3-carbonitrile hydrochloride] |
